Where two headings read alike, the source gives them in different places.
What was measured:
[1] = tested on: Dengue Virus Type 2 strain New Guinea; assay: Cytoprotection assay, Dengue virus; assay type: cell-based; details: Vero C1008
[2] = tested on: Yellow Fever Virus strain 17D; assay: microbe, parasite or virus in culture; assay type: cell-based; details: HeLa
[3] = tested on: West Nile virus strain NY-99; assay: Cytoprotection assay, West Nile virus; assay type: cell-based; details: West Nile Virus NY-99, Vero
[4] = tested on: Poliovirus strain Chat; assay: microbe, parasite or virus in culture; assay type: cell-based, Poliovirus I; details: Enterovirus C, Vero
[5] = tested on: Coxsackie virus strain B4; assay: Cytoprotection assay, Coxsackie virus; assay type: cell-based; details: Enterovirus B, B4, Vero
[6] = tested on: Rhinovirus strain 1B; assay: Cytoprotection assay, Rhinovirus; assay type: cell-based; details: Enterovirus, MRC5
[7] = tested on: HSV-1 strain HF; assay: Cytoprotection assay, HSV-1; assay type: cell-based; details: Human alphaherpesvirus 1, Vero
[8] = tested on: Vaccinia Strain Western Reserve; assay: microbe, parasite or virus in culture; assay type: cell-based; details: Orthopoxvirus vaccinia, Vero C1008
[9] = tested on: HIV-1 Strain IIIB; assay: Cytoprotection assay for HIV; assay type: cell-based; details: Human immunodeficiency virus 1; HIV-1 IIIB, MT-4
Description: Activity against other viruses. A representative compound, Example 20, Compound F, was tested against a panel of other RNA and DNA viruses. Compound F was synthesized as described in the Experimental section. Experimental conditions for growing the cells and viruses are listed below. Unless otherwise indicated, cells and viruses were obtained from the American Type Culture Collection (ATCC, Rockville, Md.).
(§1) MT-4 cells ((Catalog #120) Human T-cell Leukemia) were obtained from the NIH AIDS Reference Reagent Program and were used in cytoprotection assays with HIV-1 Strain IIIB (Southern Research). They were grown in RPMI-1640 medium supplemented with 10% FBS.
Cytoprotection Assay for HIV:_MT-4 cells were sub-cultured one day prior to testing. Cells were plated in 96 well cell culture plates at a seeding density of 6×10^5 cells/ml (3×10^4 cells/well). […] Cytoprotection and compound cytotoxicity were assessed by XTT assay (Cat#11-465-015-001, Roche Diagnostics). The plates were read spectrophotometrically at 450/650 nm with a Molecular Devices SpectraMax M2 plate reader. The percent reduction in viral CPE was determined and reported as IC50, CC50 and a calculated TI. Samples were evaluated for antiviral efficacy and cytotoxicity with triplicate measurements using 9 concentrations at 2-fold dilutions. […]

[10] = Compound cytotoxicity in HIV cytoprotection assay (XTT); assay type: cell-based; details: human, MT-4 cells; MT-4, HIV-1 assay
Description: as §1
Cytoprotection Assay for HIV:_MT-4 cells were sub-cultured one day prior to testing. Cells were plated in 96 well cell culture plates at a seeding density of 6×10^5 cells/ml (3×10^4 cells/well). […] Virus and cells were mixed in the presence of serial dilutions of test compound and incubated for 5 days at 37° C., 5% CO2. Each assay plate contained cell control wells (cells only), virus control wells (cells plus virus), compound toxicity control wells (cells plus compound only) as well as experimental wells (compound plus cells plus virus). Cytoprotection and compound cytotoxicity were assessed by XTT assay (Cat#11-465-015-001, Roche Diagnostics). The plates were read spectrophotometrically at 450/650 nm with a Molecular Devices SpectraMax M2 plate reader. The percent reduction in viral CPE was determined and reported as IC50, CC50 and a calculated TI. Samples were evaluated for antiviral efficacy and cytotoxicity with triplicate measurements using 9 concentrations at 2-fold dilutions. Each assay included Raltegravir (MK0518) as an antiviral positive control compound.

[11] = Protide stability in normal plasma, cynomolgous monkey; assay type: in vitro ADME; details: 37° C.
Description: (§2) Selected nucleoside 5′-phosphoramidates were examined for stability in human, cynomolgous monkey, rat and mouse plasma at 37° C. at both 30 min and 90 min time points.
(§3) Protide Stability in Normal Plasma: Plasma samples were prepared for analysis as follows. 50 μl of each test sample were distributed a 96-well V-bottom plate. 200 μl of acetonitrile containing 10 ng/ml of an internal standard was added to each plasma sample. The precipitated samples were centrifuged at 2500 rpm, 4° C. for 20 minutes in a Sorvall RT6000S centrifuge (Thermo Scientific, Waltham Mass.) and 100 μl of supernatant from each sample was transferred into a 96 deep well plate followed by the addition of 100 μl H2O to each sample. Samples were covered, mixed well by vortexing and maintained at 2-8° C. before and during analysis. 15 μl of each test sample was analyzed for protide concentrations by liquid chromatography coupled to tandem mass spectrometry (LC-MS/MS). Liquid chromatography was performed with an Agilent 1100 Series HPLC system equipped with a Synergi 4 μm Polar-RP, 30×2.0 mm column (Phenomenex, Torrance, Calif.). The HPLC system was coupled to an API 4000 triple quadrupole mass spectrometer (Applied Biosystems, Framingham, Mass.). Mass spectrometry was performed in positive ion mode and data was analyzed using Analyst® v1.4.2 software (Applied Biosystems, Framingham, Mass.). Data was presented as the percentage of compound recovered as compared to the 0 time point control.

[12] = Protide stability in normal plasma, mouse; assay type: in vitro ADME; details: 37° C.
Description: as §2, §3

[13] = tested on: HeLa cells; details: human
[14] = tested on: Vero cells
[15] = tested on: HCV replicon (Genotype 1b); assay: Luciferase genotype 1b replicon potency assay; details: Hepatitis C virus, GETYPE1B, read-out: IC50 μM, HCV genotype 1b luciferase replicon, Renilla luciferase reporter
[16] = Compound cytotoxicity in cytoprotection assay (MTS), MDBK; details: cow, MDBK cells

`COc1nc(N)nc2c1ncn2C1O[C@H](COP(=O)(N[C@@H](C)C(=O)OCC(C)(C)C)Oc2cccc3ccccc23)[C@@H](O)[C@@]1(C)O` (some centres unmarked) [Example 20] gave an EC50 [1] of 1.81 µM, an EC50 [2] of 0.418 µM and an EC50 [3] of 1.69 µM. The EC50 [4] was 4.71 µM, the EC50 [5] was > 10 µM and the EC50 [6] was > 10 µM. The EC50 [7] was > 10 µM, the EC50 [8] was 4.52 µM and the EC50 [9] was > 10 µM. For the same compound, the CC50 at 5 days [10] was 11 µM, the “% Compound Remaining Compared to %100 Acetonitrile Control” value ([11]; 30 min) was 97.0% and the “% Compound Remaining Compared to %100 Acetonitrile Control” value ([11]; 1.5 h) was 94.0%. The “% Compound Remaining Compared to %100 Acetonitrile Control” value ([12]; 30 min) was 0%, the “% Compound Remaining Compared to %100 Acetonitrile Control” value ([12]; 1.5 h) was 0% and the CC50 [13] was > 10 µM. The CC50 ([14]; African green monkey) was > 10 µM, the CC50 ([14]; Vero, HSV-1 assay) was > 10 µM and the CC50 ([14]; Vero, RSV assay) was > 10 µM. The IC50 [15] was 0.001 µM and the CC50 at 7 days [16] was > 10 µM.
